Assay results taken from patent US8476267B2, “Imidazo-, pyrazolopyrazines and imidazotriazines and their use” (Bayer Intellectual Property GmbH, priority 2007, dated 2013).
Counter-ions that a name gives are not always drawn.

biological target: GSK3β (Homo sapiens (Human), UniProt P49841); experiment: In vitro biochemical GSK3β inhibition assay (fluorescence, NADH-coupled); details: 5 nM GSK3β, 40 μM substrate GSM, 50 μM ATP, 30° C., 2 hours
Procedure: The inhibitory activity of active substances is determined in a biochemical assay. The ingredients required for this purpose are mixed in a black 384-well microtiter plate with transparent base (from Greiner, catalog number 781092). The requirements in this connection for each well of the 384-well microtiter plate are 5 nM GSK3β (from Upstate, catalog number xy), 40 μM GSK3β substrate GSM (sequence H-RRRPASVPPSPSLSRHS-(pS)-HQRR, from Upstate, catalog number 2-533), 30 μM nicotinamide adenine dinucleotide NADH (Roche Diagnostics, catalog number 10107735), 50 μM adenosine triphosphate ATP (from Sigma, catalog number A7966) and 2 mM phosphoenolpyruvate (from Roche, catalog number 128112). The required reaction buffer in which the biochemical reaction takes place consists of 50 mM Trizma hydrochloride Tris-HCl pH: 7.5 (from Sigma, catalog number T3253), 5 mM magnesium chloride MgCl2 (from Sigma, catalog number M8266), 0.2 mM DL-dithiothreitol DTT (from Sigma, catalog number D9779), 2 mM ethylenediaminetetraacetic acid EDTA (from Sigma, catalog number E6758), 0.01% Triton X-100 (from Sigma, catalog number T8787) and 0.05% bovine serum albumin BSA (from Sigma, catalog number B4287).
Active substances are dissolved in dimethyl sulfoxide DMSO (from Sigma, catalog number D8418) in a concentration of 10 mM. Active substances are added in serial concentrations of 10 μM, 1 μM, 0.1 μM, 0.01 μM, 0.001 μM, 0.0001 μM, 0.00001 μM, 0.000001 μM to the mixtures of the biochemical reaction. As control, dimethyl sulfoxide is added instead of substance in a final concentration of 0.1%.
The reaction is incubated at 30° C. for 2 hours and then the resulting fluorescence is measured in a Tecan Safire-XFLUOR4 instrument, version V4.50 (serial number 12901300283) with the specifications: measurement mode—fluorescence measured from below, extinction wavelength 340 nm, emission wavelength 465 nm, slit width extinction 5 nm, slit width emission 5 nm, gain mode 120, delay 0 μs, number of light flashes per measurement 3, and an integration time of 40 μs.
The activity of the active substances is calculated in relation to these 0% and 100%.

Sequence of GSK3β (P49841 whole entry, species assumed): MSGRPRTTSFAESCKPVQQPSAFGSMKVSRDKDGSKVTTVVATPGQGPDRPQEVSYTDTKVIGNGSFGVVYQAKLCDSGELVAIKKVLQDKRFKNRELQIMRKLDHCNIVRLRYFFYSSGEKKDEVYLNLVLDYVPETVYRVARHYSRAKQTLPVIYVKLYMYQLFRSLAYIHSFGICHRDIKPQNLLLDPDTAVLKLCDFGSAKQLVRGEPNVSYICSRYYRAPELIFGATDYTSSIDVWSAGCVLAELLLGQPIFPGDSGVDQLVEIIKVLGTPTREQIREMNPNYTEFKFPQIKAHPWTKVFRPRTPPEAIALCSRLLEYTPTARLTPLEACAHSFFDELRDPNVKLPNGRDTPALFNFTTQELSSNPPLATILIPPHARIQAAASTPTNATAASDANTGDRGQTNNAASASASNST

| Structure (SMILES) | IC50 [µM] |
| --- | --- |
| N#Cc1ccc(NCCNc2nc(-c3ccc(Cl)cc3Cl)cn3nc(C(=O)O)cc23)nc1 [Example 4, 4-({2-[(5-Cyanopyridin-2-yl)amino]ethyl}amino)-6-(2,4-dichlorophenyl)pyrazolo[1,5-a]pyrazine-2-carboxylic acid hydrochloride] | 0.021 |
| N#Cc1sc(NCCNc2nc(-c3ccc(Cl)cc3Cl)cn3nc(C(=O)NCC(=O)O)cc23)nc1N [Example 24] | 0.005 |
| N#Cc1ccc(NCCNc2nc(-c3ccc(Cl)cc3Cl)cn3nc(CNC4CC4)cc23)nc1 [Example 58] | 0.08 |

Other lines, results leading:

| IC50 [µM] | Structure (SMILES) |
| --- | --- |
| 0.03 | CN1CCN(CCNC(=O)c2cc3c(NCCNc4ccc(C#N)cn4)nc(-c4ccc(Cl)cc4Cl)cn3n2)CC1 [Example 5] |
| 0.31 | Cc1nc(C)n2nc(-c3ccccc3)nc(NCCNc3ccc(C#N)cn3)c12 [Example 9, 6-({2-[(5,7-Dimethyl-2-phenylimidazo[5,1-f][1,2,4]triazin-4-yl)amino]ethyl}amino)nicotinonitrile] |
| 0.008 | CCOC(=O)c1cc2c(N3CCCC(Nc4nc(N)c(C(C)=O)s4)C3)nc(-c3ccc(Cl)cc3Cl)cn2n1 (stereo not shown) [Example 17, Ethyl 4-{3-[(5-acetyl-4-amino-1,3-thiazol-2-yl)amino]piperidin-1-yl}-6-(2,4-dichlorophenyl)pyrazolo[1,5-a]pyrazine-2-carboxylate trifluoroacetate] |
| 0.003 | N#Cc1sc(NC2CCCN(c3nc(-c4ccc(Cl)cc4Cl)cn4nc(C(=O)O)cc34)C2)nc1N (stereo not shown) [Example 19] |
